According to patent publication US20190337924A1, “SUBSTITUTED HYDANTOIN AND THIOHYDANTOIN DERIVATIVES AS ANDROGEN RECEPTOR ANTAGONISTS” (Janssen Pharmaceutica NV, priority 2016, published 2019):
Counter-ions that a name gives are not always drawn. Like-named read-outs stand apart in the source and are kept apart here.

Target: T1, F876L mutant Androgen Receptor (AR-F876L) (Homo sapiens, UniProt P10275, F877L)
T1 construct: expressed in transfected cells; host or cells: LNCaP
T1 sequence (P10275 1-920 F877L): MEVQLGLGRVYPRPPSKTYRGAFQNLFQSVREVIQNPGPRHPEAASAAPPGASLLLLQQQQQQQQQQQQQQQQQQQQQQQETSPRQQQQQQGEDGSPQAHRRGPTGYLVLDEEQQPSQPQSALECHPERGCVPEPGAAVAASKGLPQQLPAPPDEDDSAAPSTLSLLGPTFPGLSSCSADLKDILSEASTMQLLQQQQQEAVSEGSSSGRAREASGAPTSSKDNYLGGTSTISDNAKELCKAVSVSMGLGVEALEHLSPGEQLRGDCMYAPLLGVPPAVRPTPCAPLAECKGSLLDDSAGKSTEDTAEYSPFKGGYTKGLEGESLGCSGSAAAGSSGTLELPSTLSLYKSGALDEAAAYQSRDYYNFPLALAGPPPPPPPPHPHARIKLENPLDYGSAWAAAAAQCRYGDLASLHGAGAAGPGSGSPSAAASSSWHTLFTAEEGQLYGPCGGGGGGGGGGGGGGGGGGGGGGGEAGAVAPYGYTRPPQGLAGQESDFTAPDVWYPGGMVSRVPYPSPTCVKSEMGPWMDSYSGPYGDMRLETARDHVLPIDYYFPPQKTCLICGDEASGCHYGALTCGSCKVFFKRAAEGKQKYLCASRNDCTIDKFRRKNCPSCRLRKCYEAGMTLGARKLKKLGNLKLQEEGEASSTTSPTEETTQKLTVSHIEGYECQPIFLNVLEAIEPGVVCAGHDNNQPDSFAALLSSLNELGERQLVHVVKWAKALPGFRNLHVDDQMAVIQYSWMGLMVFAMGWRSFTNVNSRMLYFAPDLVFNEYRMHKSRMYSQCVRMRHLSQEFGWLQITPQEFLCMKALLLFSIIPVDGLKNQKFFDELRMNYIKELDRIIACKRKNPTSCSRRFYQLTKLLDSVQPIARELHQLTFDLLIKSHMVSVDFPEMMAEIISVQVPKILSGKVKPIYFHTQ
Assay: AR reporter assay, LNCaP-AR-F876L AG (agonist mode)
Assay type: cell-based
Conditions: for Emax: read-out: LNCaP-AR-F876L AG MAX % Stim
Source text: LNCaP AR (cs) and LNCaP F876L luciferase cell lines were generated by transduction of each cell line (description of cell line generation Joseph J D, Lu N, Qian J, Sensintaffar J, Shao G, Brigham D, Moon M, Maneval E C, Chen I, Darimont B, Hager J H. A clinically relevant androgen receptor mutation confers resistance to second-generation antiandrogens enzalutamide and ARN-509. Cancer Discov 2013; 3:1020-1029) with an Androgen Response Element Firefly Luciferase lentiviral construct at an MOI (multiplicity of infection) of 50 following the manufacturer's instructions (Qiagen). A stable pooled-population cell line was generated using puromycin (Life Technologies) selection at 1:10,000 v/v. The protocol below was used for both cell lines and for testing of the compounds of Formula (I) of the present invention.
LNCaP cells were grown to about 80% confluence, media removed and cells rinsed in Hank's balanced salt solution prior to separation from the plate with 0.05% Trypsin EDTA. Cells were lifted and trypsin negated in complete CSS (charcoal stripped serum) culture media. CSS was maintained on cells for 24 h prior to assay, at which time 5,000 cells/[…] were seeded in Greiner 384 well White/White Tissue Culture Treated Plates and incubated for a further 1-2 hours at 37° C., 5% CO2, prior to addition of 10 μL of 4× Test Compounds (compounds described herein) or Assay Controls (all diluted in complete media containing 10% css). A further 10 μL of 4× R-1881 Agonist Challenge (antagonist assay) or Buffer (agonist assay) was then added (all diluted in complete media containing 10% css). Agonist challenge was at 400 pM for WT assay and 600 pM for F876L assay. Plates containing cells and compounds herein were incubated for a further 20-24 hours at 37° C., 5% CO2 before addition of 40 μL/well of Steady-Glo Luciferase Assay System Reagent (Promega#E2520). After 1 h, plates were read for luminescence on a BMG Pherastar.
((Sample RLU−Ave Low Control RLU[DMSO/Buffer])/(Ave High Control RLU [1 μM R-1881]—Ave Low Control RLU[DMSO/Buffer]))*100.
EC/IC50 calculations were achieved utilizing calculated RLU data and data fitting macros. Data were fit using least-squares methods to the following formula: […]
As used herein: • pIC50 is defined as −Log10(IC50 expressed in [Molar]). • pEC50 is defined as −Log10(EC50 expressed in [Molar]). • MAX % Inh is defined as the maximum % inhibition of R1881 control response observed for a compound over the tested concentration range. • MAX % Stim is defined as the maximum % stimulation (agonist response) observed for a compound over the tested concentration range. • LNCaP-AR-wt ANT refers to the reporter assay using LNCaP cells stably transfected with the Androgen Response Element Firefly Luciferase lentiviral construct and wild-type Androgen Receptor (AR-wt) in Antagonist mode. • LNCaP-AR-wt AG refers to the reporter assay using LNCaP cells stably transfected with the Androgen Response Element Firefly Luciferase lentiviral construct and wild-type Androgen Receptor (AR-wt) in Agonist mode. • LNCaP-AR-F876L ANT refers to the reporter assay using LNCaP cells stably transfected with the Androgen Response Element Firefly Luciferase lentiviral construct and F876L mutant Androgen Receptor (AR-F876L) in Antagonist mode. • LNCaP-AR-F876L AG refers to the reporter assay using LNCaP cells stably transfected with the Androgen Response Element Firefly Luciferase lentiviral construct and F876L mutant Androgen Receptor (AR-F876L) in Agonist mode.

Which EC50 does the source give for CC1(C)C(=O)N(c2ccc(C#N)c(C(F)(F)F)c2)C(=S)N1c1ccc(OC2CCNCC2)cc1 [Compound 1, 4-(4,4-Dimethyl-5-oxo-3-(4-(piperidin-4-yloxy)phenyl)-2-thioxoimidazolidin-1-yl)-2-(trifluoromethyl)benzonitrile] here?
The EC50 was greater than 15.1 µM.

What about the Emax of the same molecule?
The Emax was -0.1%.

What does the source list for CN1CCC(Oc2ccc(N3C(=S)N(c4ccc(C#N)c(C(F)(F)F)c4)C(=O)C3(C)C)cc2)CC1 [Compound 2, 4-(4,4-Dimethyl-3-(4-((1-methylpiperidin-4-yl)oxy)phenyl)-5-oxo-2-thioxoimidazolidin-1-yl)-2-(trifluoromethyl)benzonitrile hydrochloride]?
EC50: > 15.1 µM; Emax: 0.1%

For CC1(C)C(=O)N(c2ccc(C#N)c(C(F)(F)F)c2)C(=S)N1c1ccc(OC2CCNCC2)nc1 [Compound 3, 4-(4,4-Dimethyl-5-oxo-3-(6-(piperidin-4-yloxy)pyridin-3-yl)-2-thioxoimidazolidin-1-yl)-2-(trifluoromethyl)benzonitrile hydrochloride], which EC50 is on record?
The EC50 was greater than 15.1 µM.

And the Emax?
Its Emax is 0.3%.

How did the EC50 turn out when CN1CCC(Oc2ccc(N3C(=S)N(c4ccc(C#N)c(C(F)(F)F)c4)C(=O)C3(C)C)cn2)CC1 [Compound 4, 4-(4,4-Dimethyl-3-(6-((1-methylpiperidin-4-yl)oxy)pyridin-3-yl)-5-oxo-2-thioxoimidazolidin-1-yl)-2-(trifluoromethyl)benzonitrile hydrochloride] was run?
The EC50 was greater than 15.1 µM.

And the Emax?
The Emax was 0.1%.

For CC1(C)C(=O)N(c2ccc(C#N)c(C(F)(F)F)c2)C(=S)N1c1cnc(OC2CCNCC2)nc1 [Compound 5, 4-(4,4-Dimethyl-5-oxo-3-(2-(piperidin-4-yloxy)pyrimidin-5-yl)-2-thioxoimidazolidin-1-yl)-2-(trifluoromethyl)benzonitrile], which EC50 is on record?
The EC50 was greater than 15.1 µM.

And the Emax?
The Emax was 0%.

How did the EC50 turn out when CN1CCC(Oc2ncc(N3C(=S)N(c4ccc(C#N)c(C(F)(F)F)c4)C(=O)C3(C)C)cn2)CC1 [Compound 6, 4-(4,4-Dimethyl-3-(2-((1-methylpiperidin-4-yl)oxy)pyrimidin-5-yl)-5-oxo-2-thioxoimidazolidin-1-yl)-2-(trifluoromethyl)benzonitrile] was run?
The EC50 was greater than 15.1 µM.

And the Emax?
Its Emax is -0.1%.

How did the EC50 turn out when CC1(C)C(=O)N(c2ccc(C#N)c(Cl)c2)C(=S)N1c1ccc(OC2CCNCC2)cc1 [Compound 7, 2-Chloro-4-(4,4-dimethyl-5-oxo-3-(4-(piperidin-4-yloxy)phenyl)-2-thioxoimidazolidin-1-yl)benzonitrile hydrochloride] was run?
Its EC50 is greater than 15.1 µM.

What about the Emax of the same molecule?
Its Emax is -0.1%.

Which results are given for CN1CCC(Oc2ccc(N3C(=S)N(c4ccc(C#N)c(Cl)c4)C(=O)C3(C)C)cc2)CC1 [Compound 8, 2-Chloro-4-(4,4-dimethyl-3-(4-((1-methylpiperidin-4-yl)oxy)phenyl)-5-oxo-2-thioxoimidazolidin-1-yl)benzonitrile hydrochloride]?
EC50: > 15.1 µM; Emax: 0.1%

CC1(C)C(=O)N(c2ccc(C#N)c(Cl)c2)C(=S)N1c1ccc(OC2CCNCC2)nc1 [Compound 9, 2-Chloro-4-(4,4-dimethyl-5-oxo-3-(6-(piperidin-4-yloxy)pyridin-3-yl)-2-thioxoimidazolidin-1-yl)benzonitrile hydrochloride] was tested. Which EC50 did it give?
The EC50 was greater than 15.1 µM.

And the Emax?
The Emax was 0%.

Which results are given for CN1CCC(Oc2ccc(N3C(=S)N(c4ccc(C#N)c(Cl)c4)C(=O)C3(C)C)cn2)CC1 [Compound 10, 2-Chloro-4-(4,4-dimethyl-3-(6-((1-methylpiperidin-4-yl)oxy)pyridin-3-yl)-5-oxo-2-thioxoimidazolidin-1-yl)benzonitrile hydrochloride]?
EC50: > 15.1 µM; Emax: 0.1%

How did the EC50 turn out when N#Cc1ccc(N2C(=O)C3(CCC3)N(c3ccc(OC4CCNCC4)cc3)C2=S)cc1C(F)(F)F [Compound 11, 4-(8-Oxo-5-(4-(piperidin-4-yloxy)phenyl)-6-thioxo-5,7-diazaspiro[3.4]octan-7-yl)-2-(trifluoromethyl)benzonitrile] was run?
The EC50 was greater than 15.1 µM.

What about the Emax of the same molecule?
Its Emax is 0.1%.

CN1CCC(Oc2ccc(N3C(=S)N(c4ccc(C#N)c(C(F)(F)F)c4)C(=O)C34CCC4)cc2)CC1 [Compound 12, 4-(5-(4-((1-Methylpiperidin-4-yl)oxy)phenyl)-8-oxo-6-thioxo-5,7-diazaspiro[3.4]octan-7-yl)-2-(trifluoromethyl)benzonitrile] was tested. Which EC50 did it give?
The EC50 was greater than 15.1 µM.

What about the Emax of the same molecule?
The Emax was 0.2%.

Which EC50 does the source give for N#Cc1ccc(N2C(=O)C3(CCC3)N(c3ccc(OC4CCNCC4)nc3)C2=S)cc1C(F)(F)F [Compound 13, 4-(8-Oxo-5-(6-(piperidin-4-yloxy)pyridin-3-yl)-6-thioxo-5,7-diazaspiro[3.4]octan-7-yl)-2-(trifluoromethyl)benzonitrile hydrochloride] here?
Its EC50 is greater than 15.1 µM.

What about the Emax of the same molecule?
The Emax was 0%.

CN1CCC(Oc2ccc(N3C(=S)N(c4ccc(C#N)c(C(F)(F)F)c4)C(=O)C34CCC4)cn2)CC1 [Compound 14, 4-(5-(6-((1-Methylpiperidin-4-yl)oxy)pyridin-3-yl)-8-oxo-6-thioxo-5,7-diazaspiro[3.4]octan-7-yl)-2-(trifluoromethyl)benzonitrile] was tested. Which EC50 did it give?
The EC50 was greater than 15.1 µM.

And the Emax?
The Emax was 0.1%.

What does the source list for N#Cc1ccc(N2C(=O)C3(CCC3)N(c3cnc(OC4CCNCC4)nc3)C2=S)cc1C(F)(F)F [Compound 15, 4-(8-Oxo-5-(2-(piperidin-4-yloxy)pyrimidin-5-yl)-6-thioxo-5,7-diazaspiro[3.4]octan-7-yl)-2-(trifluoromethyl)benzonitrile]?
EC50: > 15.1 µM; Emax: -0.1%

Which EC50 does the source give for CN1CCC(Oc2ncc(N3C(=S)N(c4ccc(C#N)c(C(F)(F)F)c4)C(=O)C34CCC4)cn2)CC1 [Compound 16, 4-(5-(2-((1-Methylpiperidin-4-yl)oxy)pyrimidin-5-yl)-8-oxo-6-thioxo-5,7-diazaspiro[3.4]octan-7-yl)-2-(trifluoromethyl)benzonitrile] here?
The EC50 was greater than 15.1 µM.

And the Emax?
Its Emax is 0.1%.

Which results are given for Cc1cc(N2C(=O)C3(CCC3)N(c3ccc(OC4CCN(C)CC4)cc3)C2=S)ccc1C#N [Compound 17, 2-Methyl-4-(5-(4-((1-methylpiperidin-4-yl)oxy)phenyl)-8-oxo-6-thioxo-5,7-diazaspiro[3.4]octan-7-yl)benzonitrile]?
EC50 (agonist mode (buffer, no R-1881), -Log10(EC50 in Molar), read-out: LNCaP-AR-F876L AG pEC50 (converted)): > 15.1 µM; Emax: 0.2%
